In the supplement of paper PMC12669032:

How the values were obtained:
Experiment in all cases: growth AUC relative to DMSO control (fraction); higher = more growth (less inhibition)
Details in all cases: 24 h
Bacteroides uniformis = tested on: Bacteroides uniformis
Experimental: (§1)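 Validation screen: 11 independently purchased pesticides tested on 8 gut bacterial strains at 2.5–320 µM in mGAM, anaerobic, 37 °C, 24 h. Growth AUC normalised to DMSO controls, mean of 3 independent experiments.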

Clostridium difficile = tested on: Clostridium difficile
Experimental: as §1

Escherichia coli IAI1 = tested on: Escherichia coli IAI1
Experimental: as §1

Eubacterium rectale = tested on: Eubacterium rectale
Experimental: as §1

Lactobacillus gasseri = tested on: Lactobacillus gasseri
Experimental: as §1

[1] = tested on: Parabacteroides distasonis
Experimental: as §1

Roseburia intestinalis = tested on: Roseburia intestinalis
Experimental: as §1

Streptococcus salivarius = tested on: Streptococcus salivarius
Experimental: as §1

O=C(Oc1ccccc1)n1c(C(F)(F)F)nc2cc(Cl)c(Cl)cc21 [FENAZAFLOR]
growth AUC
Details | Bacteroides uniformis | Clostridium difficile | Escherichia coli IAI1 | Eubacterium rectale | Lactobacillus gasseri | Roseburia intestinalis | Streptococcus salivarius | [1]
2.5 µM | 0.972 | 0.824 | 0.97 | 0.987 | 1.06 | 1.05 | 1.07 | 0.939
5 µM | 0.914 | 0.854 | 0.837 | 0.875 | 0.99 | 0.968 | 0.876 | 0.6
10 µM | 0.686 | 0.595 | 0.679 | 0.642 | 0.837 | 0.887 | 0.658 | 0.314
20 µM | 0.492 | 0.705 | 0.617 | 0.407 | 0.448 | 0.582 | 0.513 | 0.174
40 µM | 0.171 | 0.00756 | 0.383 | 0.255 | 0.168 | 0.22 | 0.0266 | 0.0387
80 µM | 0.00285 | 0.0273 | 0.00144 | 0.106 | 0.0839 | 0.0682 | 0.0113 | 0.0173
160 µM | 0.00332 | 0.0114 | 0.00384 | 0.0493 | 0.0514 | 0.0676 | 0.00976 | 0.0144
320 µM | 0.0184 | 0.0253 | 0.0222 | 0.106 | 0.0326 | 0.0375 | 0.0373 | 0.0614

COC(=O)N(OC)c1ccccc1COc1ccn(-c2ccc(Cl)cc2)n1 [PYRACLOSTROBIN]
growth AUC
Details | Bacteroides uniformis | Clostridium difficile | Escherichia coli IAI1 | Eubacterium rectale | Lactobacillus gasseri | Roseburia intestinalis | Streptococcus salivarius | [1]
2.5 µM | 1.01 | 1.03 | 1.02 | 1.17 | 1.06 | 0.955 | 1.11 | 0.922
5 µM | 0.994 | 1.01 | 1.02 | 1.12 | 1.01 | 0.923 | 1.09 | 0.798
10 µM | 0.955 | 1 | 1.01 | 1.18 | 0.997 | 0.957 | 1.07 | 0.705
20 µM | 0.988 | 1.01 | 1.01 | 1.16 | 0.955 | 0.859 | 1.12 | 0.626
40 µM | 0.926 | 1.03 | 1.01 | 1.18 | 0.989 | 0.975 | 1.08 | 0.401
80 µM | 0.914 | 1.04 | 0.999 | 1.13 | 0.914 | 0.919 | 1.02 | 0.26

C=CCOC(Cn1ccnc1)c1ccc(Cl)cc1Cl.O=S(=O)(O)O (stereo unspecified) [IMAZALIL SULFATE]
growth AUC
Details | Bacteroides uniformis | Clostridium difficile | Escherichia coli IAI1 | Eubacterium rectale | Lactobacillus gasseri | Roseburia intestinalis | Streptococcus salivarius | [1]
2.5 µM | 1.04 | 1.02 | 0.998 | 0.622 | 1.07 | 0.943 | 1.05 | 1.02
5 µM | 1 | 0.962 | 0.975 | 0.322 | 0.958 | 0.906 | 1.01 | 0.948
10 µM | 1.01 | 0.944 | 0.956 | 0.0607 | 0.976 | 0.861 | 0.963 | 0.856
20 µM | 0.971 | 1.01 | 0.96 | 0.0382 | 0.92 | 0.459 | 0.978 | 0.922
40 µM | 0.976 | 0.915 | 0.942 | 0.0278 | 0.946 | 0.0225 | 0.961 | 0.732
80 µM | 0.928 | 0.797 | 0.961 | 0.014 | 0.881 | 0.0276 | 0.944 | 0.587
160 µM | 0.836 | 0.515 | 0.879 | 0.0363 | 0.788 | 0.0196 | 0.999 | 0.145
320 µM | 0.413 | 0.219 | 0.776 | 0.0159 | 0.414 | 0.0118 | 0.705 | 0.0186
